Measured values reported in patent US10154958B1 (King Abdulaziz University, priority 2017, dated 2018).
Marks after values point to notes of the source that are not given here.

Tests used:
Trichomonas vaginalis = assay: In vitro susceptibility of Trichomonas vaginalis isolates (flagellar motility); assay type: cell-based; conditions: 37° C.; for Mean % cells with motility after 48 hrs of aerobic contact: 500 cells/100 μL + 100 μL composition or metranidazole 25 μg/ml
Procedure: Fresh isolates of Trichomonas vaginalis were collected from 30-38 years old women. The procedure of vaginal smearing and reconstituting medium of the collected specimens were performed according to the procedure in Meingassner and Thumer, Antimicrobial agents and Chemotherapy, Vol 15, pp 254-257,1979, incorporated herein by reference in its entirety. Each isolate was adjusted to a viable count of 5,000 cells/ml, using a hemocytometer. A reconstituting diluent, Diamond's TYM supplemented with 10% horse serum, was used. The isolates were tested with the composition and a commonly used drug, metranidazole.
The number of cells in each well was 500 cells/100 μL of medium. […] Metranidazole was included as a reference at a concentration of 25 μg/ml. Metranidazole (100 μL) was also kept in contact with 500 cells/100 μL of the 20 isolates of Trichomonas vaginalis in the presence of oxygen for 48 hours at 37° C. Control triplicate wells were included in which the Trichomonas vaginalis cells of each of the 20 isolates were put in contact with equal volume of Diamond's TYM supplemented with 10% horse serum. The motility of flagella of the cells was observed after 48 hrs under an inverted-phase contrast microscope. The percentage of cells losing flagellar motility was determined.

Gardnerella vaginalis = assay: Disc diffusion susceptibility of Gardnerella vaginalis isolates; assay type: cell-based; conditions: of the 20 isolates of Gardnerella vaginalis; reference disc 5 mcg/disc
Procedure: Twenty isolates of each of Gardnerella vaginalis and Candida albicans were collected from human vaginosis cases. […] The disc diffusion method was used. For Gardnerella vaginalis, the Mueller-Hinton agar supplemented with 5% human serum medium was used.
The discs were incubated aerobically for 48 hrs at 35° C., the diameter of the discs inhibition zones were measured in millimeter, and interpreted by using the chart provided by Hudzicki, American Society for Microbiology, www.asm.org.2013, incorporated herein by reference in its entirety.

## Cc1ncc([N+](=O)[O-])n1CCO [Metranidazole, metranidazole]
Trichomonas vaginalis; isolate 1
  Mean % cells with motility after 48 hrs of aerobic contact: 4.0%
Trichomonas vaginalis; isolate 2
  Mean % cells with motility after 48 hrs of aerobic contact: 0.0%
Trichomonas vaginalis; isolate 3
  Mean % cells with motility after 48 hrs of aerobic contact: 1.5%
Trichomonas vaginalis; isolate 4
  Mean % cells with motility after 48 hrs of aerobic contact: 5.4%
Trichomonas vaginalis; isolate 5
  Mean % cells with motility after 48 hrs of aerobic contact: 7.4%
Trichomonas vaginalis; isolate 6
  Mean % cells with motility after 48 hrs of aerobic contact: 0.0%
Trichomonas vaginalis; isolate 7
  Mean % cells with motility after 48 hrs of aerobic contact: 9.3%
Trichomonas vaginalis; isolate 8
  Mean % cells with motility after 48 hrs of aerobic contact: 5.6%
Trichomonas vaginalis; isolate 9
  Mean % cells with motility after 48 hrs of aerobic contact: 8.4%
Trichomonas vaginalis; isolate 10
  Mean % cells with motility after 48 hrs of aerobic contact: 10.4%
Trichomonas vaginalis; isolate 11
  Mean % cells with motility after 48 hrs of aerobic contact: 0.0%
Trichomonas vaginalis; isolate 12
  Mean % cells with motility after 48 hrs of aerobic contact: 4.2%
Trichomonas vaginalis; isolate 13
  Mean % cells with motility after 48 hrs of aerobic contact: 0.0%
Trichomonas vaginalis; isolate 14
  Mean % cells with motility after 48 hrs of aerobic contact: 6.7%
Trichomonas vaginalis; isolate 15
  Mean % cells with motility after 48 hrs of aerobic contact: 8.5%
Trichomonas vaginalis; isolate 16
  Mean % cells with motility after 48 hrs of aerobic contact: 11.4%
Trichomonas vaginalis; isolate 17
  Mean % cells with motility after 48 hrs of aerobic contact: 7.4%
Trichomonas vaginalis; isolate 18
  Mean % cells with motility after 48 hrs of aerobic contact: 8.2%
Trichomonas vaginalis; isolate 19
  Mean % cells with motility after 48 hrs of aerobic contact: 9.7%
Trichomonas vaginalis; isolate 20
  Mean % cells with motility after 48 hrs of aerobic contact: 1.2%
Trichomonas vaginalis; mean of means of the 20 isolates, composition or metranidazole 25 μg/ml
  Mean % cells with motility after 48 hrs of aerobic contact, Mean of Means: 5.5^a %
Gardnerella vaginalis
  number of isolates resistant to the reference disc: one
